Values after ≈ are worked out from the molar mass of the structure shown.
Legend:
C. albicans YEM13 = assay: Microbroth dilution MIC80; format: cell-based; details: Candida albicans
Excerpt: (§1) Compound library. The thiosemicarbazone derivatives Triapine and COTI-2 were purchased from Med Chem Express (MCE). The other 87 thiosemicarbazones used in this study were previously synthesized by our collaborators (1, 2). Their structures are shown in Table 1 and Table S1 to help the reader clearly understand the relationship between structure and activity.
(§2) Strains and culture conditions. Clinically derived C. albicans isolates, including G5, F5, and Gu5, were kindly provided by Professor Joachim Morschhäuser of the University of Würzburg. Other clinical C. albicans isolates were kindly donated by Professor Qingguo Qi of Shandong University and Qianfoshan Hospital of Shandong Province Other Candida strains were obtained from Jinan Central Hospital.
(§3) The zap1 mutant and its complemented strain were kindly provided by Professor Aaron P. Mitchell of Carnegie Mellon University (3). The C. neoformans strains used in this study was kindly donated by Professor Guojian Liao of Southwest University and A. fumigatus strain used in this study was provided by Professor Ling Lu of Nanjing Normal University. Before in vitro and in vivo experiments, all C. albicans strains were grown on YPD agar plates. After culturing at 30°C for 24 h, colonies of each strain were cultured in liquid YPD medium at 30°C with continuous shaking […]
(§4) Antifungal susceptibility testing. To determine in vitro antifungal activities, the microbroth dilution method was carried out in RPMI1640 medium according to the guidelines of the Clinical and Laboratory Standards Institute (4, 5). The initial concentration in RPMI1640 medium was 1 × 10^3 CFU/mL for the C. albicans and C. neoformans suspensions but 1 × 10^4 CFU/mL for A. fumigatus. The range of final drug concentrations was 0.0156–64 μg/mL. The plates were incubated at35°C for 24 […]
(§5) h (for C. albicans, C. krusei, C. tropicalis, C. parapsilosis) or 48 h (for C. neoformans, A. fumigatus). The MIC was determined based on visible growth inhibition compared with the control. All experiments were performed in duplicate. […]

C. neoformans 108 = assay: Microbroth dilution MIC80; format: cell-based; details: Cryptococcus neoformans; C. neoformans 108; read-out: MIC80
Excerpt: as §1, §2, §3, §4, §5

A. fumigatus 1161 = assay: Microbroth dilution MIC80; format: cell-based; details: Aspergillus fumigatus; A. fumigatus 1161; read-out: MIC80
Excerpt: as §1, §2, §3, §4, §5

C. albicans 28D = assay: Microbroth dilution MIC80; format: cell-based; details: Candida albicans; C. albicans 28D; read-out: MIC80
Excerpt: as §1, §2, §3, §4, §5

C. albicans CA1 = assay: Microbroth dilution MIC80; format: cell-based; details: Candida albicans; C. albicans CA1; read-out: MIC80
Excerpt: as §1, §2, §3, §4, §5

C. albicans CA3 = assay: Microbroth dilution MIC80; format: cell-based; details: Candida albicans; C. albicans CA3; read-out: MIC80
Excerpt: as §1, §2, §3, §4, §5

C. albicans 24g = assay: Microbroth dilution MIC80; format: cell-based; details: Candida albicans; C. albicans 24g; read-out: MIC80
Excerpt: as §1, §2, §3, §4, §5

C. tropicalis CT2 = assay: Microbroth dilution MIC80; format: cell-based; details: Candida tropicalis; C. tropicalis CT2; read-out: MIC80
Excerpt: as §1, §2, §3, §4, §5

C. albicans 11e = assay: Microbroth dilution MIC80; format: cell-based; details: Candida albicans; C. albicans 11e; read-out: MIC80
Excerpt: as §1, §2, §3, §4, §5

C. albicans CA4 = assay: Microbroth dilution MIC80; format: cell-based; details: Candida albicans; C. albicans CA4; read-out: MIC80
Excerpt: as §1, §2, §3, §4, §5

C. albicans 11f = assay: Microbroth dilution MIC80; format: cell-based; details: Candida albicans; C. albicans 11f; read-out: MIC80
Excerpt: as §1, §2, §3, §4, §5

C. albicans F5 = assay: Microbroth dilution MIC80; format: cell-based; details: Candida albicans; C. albicans F5; read-out: MIC80
Excerpt: as §1, §2, §3, §4, §5

C. albicans 28A = assay: Microbroth dilution MIC80; format: cell-based; details: Candida albicans; C. albicans 28A; read-out: MIC80
Excerpt: as §1, §2, §3, §4, §5

C. albicans DSY654 = assay: Microbroth dilution MIC80; format: cell-based; details: Candida albicans
Excerpt: as §1, §2, §3, §4, §5

C. albicans YEM15 = assay: Microbroth dilution MIC80; format: cell-based; details: Candida albicans; C. albicans YEM15; read-out: MIC80
Excerpt: as §1, §2, §3, §4, §5

C. albicans 28I = assay: Microbroth dilution MIC80; format: cell-based; details: Candida albicans; C. albicans 28I; read-out: MIC80
Excerpt: as §1, §2, §3, §4, §5

C. parapsilosis CP001 = assay: Microbroth dilution MIC80; format: cell-based, Candida parapsilosis; details: Lodderomyces parapsilosis; C. parapsilosis CP001; read-out: MIC80
Excerpt: as §1, §2, §3, §4, §5

C. albicans G5 = assay: microbe, parasite or virus in culture; format: cell-based; details: Candida albicans; C. albicans G5; read-out: MIC80
Excerpt: as §1, §2, §3, §4, §5

C. albicans Gu5 = assay: microbe, parasite or virus in culture; format: cell-based; details: Candida albicans; C. albicans Gu5; read-out: MIC80
Excerpt: as §1, §2, §3, §4, §5

C. albicans SC5314 [1] = assay: Drug resistance study by serial passage; format: cell-based, Candida albicans; details: RPMI 1640 medium, 40-day period, passages at 0.5 × MIC
C. krusei CK1 = assay: Microbroth dilution MIC80; format: cell-based, Candida krusei; details: Pichia kudriavzevii; C. krusei CK1; read-out: MIC80
Excerpt: as §1, §2, §3, §4, §5

C. albicans SC5314 [2] = assay: Antifungal susceptibility testing, microbroth dilution MIC; format: cell-based; details: Candida albicans, SC5314; C. albicans wild-type strain; RPMI1640, 35°C, 24 h; read-out: MIC (μg/mL) against fungi SC5314
Excerpt: as §1, §2, §3, §4, §5

A. fumigatus AF293 = assay: as above; format: cell-based; details: Aspergillus fumigatus, AF293; standard strain of A. fumigatus; 48 h; read-out: MIC (μg/mL) against fungi AF293
Excerpt: as §1, §2
(§6) The zap1 mutant and its complemented strain were kindly provided by Professor Aaron P. Mitchell of Carnegie Mellon University (3). The C. neoformans strains used in this study was kindly donated by Professor Guojian Liao of Southwest University and A. fumigatus strain used in this study was provided by Professor Ling Lu of Nanjing Normal University. […]
as §4, §5

C. neoformans H99 = assay: as above; format: cell-based; details: Cryptococcus neoformans, H99; C. neoformans wild-type strain; 48 h; read-out: MIC (μg/mL) against fungi H99
Excerpt: as §1, §2, §6, §4, §5

C. albicans SC5314 [3] = assay: G. mellonella infection model; format: in vivo, Galleria mellonella; details: 19ak 0.4 μg per larva, FLC 2 μg per larva
Experimental: The G. mellonella infection model was used to evaluate the in vivo activity of 19ak in terms of survival, fungal burden, and histological features. A total of 60 larvae of similar size were selected and randomly allocated to four groups. The last right foreleg of each larva was injected with 10 μL of C. albicans SC5314 suspension (2 × 10^7 CFU/mL). Two hours after infection, the larvae were injected with 10 μL of drug or vehicle as follows for the four groups: 19ak (0.4 μg per larva), FLC (2 μg per larva), control (PBS), and blank control (no injection with C. albicans but injections of sterile PBS twice). The data for the blank control are not shown because this group survived well during the experiment. Failure to respond to light contact with forceps was considered a sign of larval death. In the survival assay, the number of surviving larvae in each group was calculated at the same time every day for 4 days.
To determine fungal burden, larval infection and treatment were performed as described above with groups of 30 larvae each. Each day, five larvae were randomly selected from each group and homogenized with glass beads in 0.5 mL of sterile PBS. The homogenate was serially diluted with sterile PBS, and 5 μL was spread on a yeast-peptone-dextrose solid plate ([62]). Experiments were performed at least three times independently.
We also conducted histopathological studies to explore the therapeutic effects of the drugs on G. mellonella fungal infection. First, the groups of larvae were infected as described above. After 48 h, three larvae from each group were randomly selected and fixed in 4% paraformaldehyde for sectioning and Periodic acid-Schiff (PAS) staining. The tissue was observed and photographed under an Olympus microscope with 40 × magnification (IX71, Olympus, Tokyo, Japan). The experiments were performed independently a minimum of three times.

OC(Cn1cncn1)(Cn1cncn1)c1ccc(F)cc1F [FLC, fluconazole, reference compound]
MIC80 (C. albicans YEM13): 64 µg/mL (≈ 209 µM)
MIC80 (C. neoformans 108): 2 µg/mL (≈ 6.53 µM)
MIC80 (A. fumigatus 1161): > 64 µg/mL
MIC80 (C. albicans 28D): > 128 µg/mL
MIC80 (C. albicans CA1): 2 µg/mL (≈ 6.53 µM)
MIC80 (C. albicans CA3): 2 µg/mL (≈ 6.53 µM)
MIC80 (C. albicans 24g): 1 µg/mL (≈ 3.27 µM)
MIC80 (C. tropicalis CT2): 2 µg/mL (≈ 6.53 µM)
MIC80 (C. albicans 11e): 1 µg/mL (≈ 3.27 µM)
MIC80 (C. albicans CA4): 8 µg/mL (≈ 26.1 µM)
MIC80 (C. albicans 11f): 1 µg/mL (≈ 3.27 µM)
MIC80 (C. albicans F5): > 128 µg/mL
MIC80 (C. albicans 28A): > 128 µg/mL
MIC80 (C. albicans DSY654): 0.25 µg/mL (≈ 0.816 µM)
MIC80 (C. albicans YEM15): 64 µg/mL (≈ 209 µM)
MIC80 (C. albicans 28I): > 128 µg/mL
MIC80 (C. parapsilosis CP001): 1 µg/mL (≈ 3.27 µM)
MIC80 (C. albicans G5): > 128 µg/mL
MIC80 (C. albicans Gu5): > 128 µg/mL
Change of MIC after repeated exposure (C. albicans SC5314 [1]): significant increase in the MIC value
MIC80 (C. krusei CK1): 2 µg/mL (≈ 6.53 µM)
MIC (C. albicans SC5314 [2]): 2 µg/mL (≈ 6.53 µM)
MIC (A. fumigatus AF293): > 64 µg/mL
MIC (C. neoformans H99): 2 µg/mL (≈ 6.53 µM)
Histopathology of infected larvae (C. albicans SC5314 [3]; 48 h, PAS staining): fewer infected areas
Fungal burden of infected larvae (C. albicans SC5314 [3]; compared with the control group): greatly reduced the fungal burden
